From patent US7345051B2, “Mucin synthesis inhibitors” (Genaera Corporation, priority 2000, dated 2008)
Entries after “also recorded” stand apart in the source; their conditions may differ. Each block holds one molecule with its values, some of them ahead of it.

Key:
[1] = test system: MUC5A/C secretion in hCLCA1 expressing H292 cells; assay: MUC5A/C secretion in hCLCA1 expressing H292 cells (ELLA); type: cell-based, human; parameters: key to ELLA: + = inhibition; − = no inhibition; conditions: for ELLA: Table 2, mucin production
activated Caco2 cells = conditions: Caco-2
[2] = test system: MUC5AC production by H292 clone 15 cells overexpressing hCLCA1; assay: ELLA of MUC5AC in conditioned media of H292 clone 15 cells; type: cell-based, human; conditions: Average of 3 experiments
H292 clone 15 cells = conditions: 48 hours compound, Alamar Blue 2 hours; Average of 3 experiments
Muc5b = assay: Inhibition of Muc5b expression; type: cell-based; parameters: key: + = inhibition; − = no inhibition; conditions: Table 2
Method: The effects of talniflumate derivatives on mucin production were also assayed for changes in ELLA and IC50 (Table 2) as described in the methods above.

[3] = test system: activated Caco2 cell line; assay: Viability of activated Caco2 cells treated with NFA; type: cell-based; conditions: even higher concentrations of NFA
activated LHL4 cells = assay: Eotaxin production by activated LHL4 cells (ELISA); type: cell-based; conditions: increasing concentrations
Method: Activated LHL4 cells that express and secrete eotaxin have been produced and used to test for inhibitors of eotaxin production. These cells were assayed in vitro for eotaxin by an ELISA technique well known in the art (R&D Systems).

[4] = test system: mice sensitized by nasal aspiration of Aspergillus fumigatus antigen; type: in vivo
IL9 transgenic mice = assay: Mucin production in lungs of IL9 transgenic mice, intra-tracheal treatment; type: in vivo; conditions: NFA (100 μg) IT once daily for three days
Method: Certified virus-free male and female IL9 transgenic mice (IL9TG5-FVB/N) 5-6 weeks of age were bred in our laboratories. Male and female FVB/N mice 5-6 weeks of age were purchased from Jackson Laboratories (Bar Harbor Me.). Animals were housed in high-efficiency, particulate filtered air and allowed free access to food and water for 3 to 7 days prior to experimental manipulation. The animal facilities were maintained at 22° C. and the light:dark cycle was automatically controlled (10:14 hour light:dark).
Animals were phenotyped, naïve, or 24 hrs after receiving intra-tracheal (IT) shame (vehicle) treatment, or drugs in the same vehicle as was used in identically treated controls. Mice were treated IT once daily for three days. NFA (100 μg) or antibody to IL-9 were administered in PBS IT. […] The up-regulation of mucus production in the IL9 transgenic is specifically associated with increased steady-state mRNA levels of MUC2 and MUC5AC as shown by RT-PCR (FIG. 9).

[5] = test system: NCI-H292/hICACC-1 (AAF 15) cells; assay: AB/PAS staining of mucous glycoconjugates in NCI-H292 cells over-expressing hICACC-1; type: cell-based, human; conditions: 3 days
Method: NCI-H292 cells, a human pulmonary mucoepidermoid carcinoma cell line, were purchased from the American Type Culture Collection (Manassas Va.) and cultured in RPMI1640 medium supplemented with 10% FBS and 1% penicillin/streptomycin (Gibco/BRL). The cells were grown in a humidified, air-containing incubator, supplemented with 5% CO2 at 37° C. Stable NCI-H292 cell lines over-expressing hICACC-1 were established by transfection of pcDNA3-hICACC-1 using a Fujin Transfection kit according to the manufacture's instruction (Boehringer-Mannheim). A control cell line was produced, NCI-H292/ctl, by the transfection of pcDNA3 (ctl) into the NCI-H292 cell line using the same procedure. Expression of the hICACC-1 gene was confirmed for the pcDNA3-hICACC-1 transfectent by Northern analysis.
For the determination of mucous glycoconjugate production, NCI-H292/ctl and NCI-H292/hICACC-1 (AAF 15) cells were cultured in 24-well plates for 3 days. Cells were then fixed with Formalin and mucous glycoconjugates were visualized by AB/PAS staining (Sigma). […] For chloride channel blockage studies, cells were cultured in the presence of niflumic acid (NFA) (Sigma) at 100 μM concentration, mefanamic acid (MFA) at 125 or 250 μM or talniflumate at 12.5, 25 or 50 μM, or media alone.

[6] = test system: B6D2F1 mice sensitized with Aspergillus fumigatus; assay: Murine asthma model, Aspergillus fumigatus sensitization, Talniflumate containing mouse chow; type: in vivo; conditions: oral
MUC2 transcription = assay: MUC2 promoter luciferase reporter, lipoteichoic acid induction; type: cell-based; conditions: LTA from S. aureus; FIG. 22
Method: MUC2 transcription was monitored as described in Li et al. (1998) Proc. Natl. Acad. Sci., USA, Vol. 95, pp. 5718-5723. Briefly, an epithelial cell line was transfected with a reporter construct containing the promoter region from the MUC2 gene cloned upstream of a luciferase reporter gene. Transfected cells were treated with serum free media (SFM) alone or, as indicated, containing lipoteichoic acid from S. aureus bacteria (LTA), adenosine (aden), or talniflumate (MSI). Cells were then lysed and luciferase enzyme activity in the lysates was measured (RLU). Talniflumate modulated the lipoteichoic acid induction of MUC2 (see FIG. 22). This is also an appropriate model for CF.

[7] = test system: human chloride channel hICACC-1; assay: Patch clamp chloride current, NCI-H292 cell expressing hICACC-1; type: cell-based; conditions: 5 micromolar talniflumate; 2 μM ionomycin and 2 mM calcium
Method: An NCI-H292 cell transfected with a plasmid expressing the human chloride channel hICACC-1 was patch clamped and chloride current (I) was measured over a range of voltages (V). Substantial chloride current was invoked by the addition of 2 μM ionomycin and 2 mM calcium (circles) compared to baseline (squares), indicating activation of hICACC-1.

[8] = test system: CF mice (CF knock-out mice and CF ΔF508 mice); conditions: po, 100 mg/kg
[9] = biological target: T1, murine chloride channel, mICACC-1 (Mus musculus, UniProt Q9D7Z6); assay: Patch clamp chloride current, HEK293 cell expressing mICACC-1; type: cell-based; conditions: for Chloride Current (nA/pF): + ionomycin + Ca
T1 construct: expressed in transfected cells; host or cells: HEK293
T1 sequence (Q9D7Z6 22-913): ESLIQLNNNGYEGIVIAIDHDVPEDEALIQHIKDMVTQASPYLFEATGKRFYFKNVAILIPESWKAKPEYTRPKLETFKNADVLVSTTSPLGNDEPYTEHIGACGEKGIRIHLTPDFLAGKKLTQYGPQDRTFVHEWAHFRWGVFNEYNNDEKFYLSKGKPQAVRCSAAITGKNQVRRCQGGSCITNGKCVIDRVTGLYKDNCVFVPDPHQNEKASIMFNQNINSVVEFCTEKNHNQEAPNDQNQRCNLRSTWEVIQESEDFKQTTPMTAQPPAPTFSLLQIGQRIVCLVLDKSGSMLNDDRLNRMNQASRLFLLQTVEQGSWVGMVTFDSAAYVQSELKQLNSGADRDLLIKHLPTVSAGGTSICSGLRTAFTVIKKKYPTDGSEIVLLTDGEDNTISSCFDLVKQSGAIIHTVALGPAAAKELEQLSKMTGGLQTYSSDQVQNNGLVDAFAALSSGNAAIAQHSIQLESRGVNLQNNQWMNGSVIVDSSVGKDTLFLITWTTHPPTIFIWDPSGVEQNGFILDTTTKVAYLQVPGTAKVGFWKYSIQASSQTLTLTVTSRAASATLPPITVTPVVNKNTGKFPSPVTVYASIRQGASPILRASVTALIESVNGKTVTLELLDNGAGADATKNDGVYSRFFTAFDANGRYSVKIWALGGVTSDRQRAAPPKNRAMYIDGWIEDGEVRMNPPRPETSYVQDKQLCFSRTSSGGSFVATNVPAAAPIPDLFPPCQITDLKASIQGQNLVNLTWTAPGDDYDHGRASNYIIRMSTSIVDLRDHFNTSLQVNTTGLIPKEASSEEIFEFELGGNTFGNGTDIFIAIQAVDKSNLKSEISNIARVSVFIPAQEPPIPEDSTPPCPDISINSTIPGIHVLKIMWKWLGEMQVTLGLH
Method: A HEK293 cell transfected with a plasmid expressing a murine chloride channel, mICACC-1, was patch clamped and chloride current was measured over a range of voltages (V, left column) and the results are shown in Table 3 below. Each row lists currents invoked at a particular positive voltage in the absence (−) or presence (+) of ionomycin and calcium, and in the presence of an indicated concentration of diclofenac (μM). Substantial current was invoked by the addition of 2 μM ionomycin and 2 mM calcium-compare the first two columns-indicating activation of mICACC-1 by the ionomycin/calcium treatment. For example, at 100 mV of positive voltage, the chloride current was increased from 39 nA/pF to 105 nA/pF.

Structure (SMILES): COC(=O)c1cccnc1Nc1cccc(C(F)(F)F)c1 [MSI 2213, Niflumic acid methyl ester]
ELLA [1]: −

Structure (SMILES): O=C1OC(CC(=O)c2cccnc2Sc2ccccc2Cl)c2ccccc21 (stereo not drawn) [Compound 15]
IC50 ([2]; Homo sapiens, NCI-H292, 48 hours): 2.5 µM
Est. LD50 (μM)(alamar Blue)* (H292 clone 15 cells): 15 µM

Structure (SMILES): O=C1OC(CC(=O)c2cccnc2Nc2cccc(C(F)(F)F)c2)c2ccccc21 (stereo not drawn) [MSI 2216]
IC50 ([1]; Table 2, ELLA): 5000 nM
ELLA [1]: +
Inhibition of Muc5b Expression (Muc5b): +
IC50 ([2]; 48 hours): 3 µM
Est. LD50 (μM)(alamar Blue)* (H292 clone 15 cells): 32 µM

Structure (SMILES): O=C(O)c1cccnc1Nc1cccc(C(F)(F)F)c1 [NFA, niflumic acid]
viability [3]: not affected; also recorded: did not effect their viability
eotaxin production (activated LHL4 cells): Significant inhibition; also recorded: blocks epithelial activation including chemokine production
serum IgE levels ([4]; 100 μg of NFA intra-tracheal, days 0-21, vs PBS): no effect
BAL lung eosinophilia ([4]; mouse, in vivo): suppress; also recorded: reduces antigen-induced lung eosinophilia in vivo
antigen-induced airway hyperresponsiveness ([4]; mouse, in vivo): suppress; also recorded: suppresses antigen-induced airway hyperresponsiveness
mucin production in the IL9 transgenic lungs (IL9 transgenic mice): decreased mucin production
PAS positive staining muco-glycoconjugates compared with untreated cells ([5]; NFA at 100 μM): significantly fewer positive staining muco-glycoconjugates

Structure (SMILES): O=C1OC(OC(=O)c2cccnc2Nc2cccc(C(F)(F)F)c2)c2ccccc21 (stereo not drawn) [Talniflumate, talniflumate]
lung eosinophilia, number of eosinophilic cells by bronchoalveolar lavage ([6]; Talniflumate coated chow, sensitized mice vs standard chow): reduced the number of eosinophilic cells; also recorded: inhibition of lung eosinophilia
mucin staining (PAS) in lung ([6]; Talniflumate containing chow ad lib, Asp-sens mice vs regular chow): reduced mucin staining; also recorded: inhibition of mucin over production
PAS positive staining muco-glycoconjugates compared with untreated cells ([5]; talniflumate at 12.5, 25 or 50 μM): significantly fewer positive staining muco-glycoconjugates
lipoteichoic acid induction of MUC2 (luciferase, RLU) (MUC2 transcription): modulated
chloride current at positive voltage [7]: reduction in chloride current
body weight gained [8]: 8-12%
Est. LD50 (μM)(alamar Blue)* (H292 clone 15 cells): 108 µM

Structure (SMILES): O=C1OC(CC(=O)c2cccnc2Oc2cccc(Br)c2)c2ccccc21 (stereo not drawn) [Compound 14]
Est. LD50 (μM)(alamar Blue)* (H292 clone 15 cells): 16 µM

Further lines, with some results ahead:

Mucin production by activated Caco2 cells (activated Caco2 cells): partially
Structure (SMILES): Cc1ccc(Cl)c(Nc2ccccc2C(=O)O)c1Cl [Meclofenamate]

Mucin production by activated Caco2 cells (activated Caco2 cells): ineffective
Structure (SMILES): CC1=C(CC(=O)O)c2cc(F)ccc2/C1=C\c1ccc([S+](C)[O-])cc1 (stereo not drawn) [Sulindac]

Mucin production by activated Caco2 cells (activated Caco2 cells): inhibited
Structure (SMILES): O=C(O)c1ccccc1Nc1cccc(C(F)(F)F)c1 [Flufenamate]

Mucin production by activated Caco2 cells (activated Caco2 cells): ineffective
Structure (SMILES): COc1ccc2cc([C@H](C)C(=O)O)ccc2c1 [Naproxen]

Mucin production by activated Caco2 cells (activated Caco2 cells): partially
Structure (SMILES): Cc1cccc(Nc2ccccc2C(=O)O)c1C [Mefenamate]
PAS positive staining muco-glycoconjugates compared with untreated cells ([5]; MFA at 125 or 250 μM): significantly fewer positive staining muco-glycoconjugates

Chloride Current (nA/pF) ([9]; 0 mV, diclofenac 5 μM): 20 nA/pF
Chloride Current (nA/pF) ([9]; 0 mV, diclofenac 20 μM): 20 nA/pF
Chloride Current (nA/pF) ([9]; 0 mV, diclofenac 50 μM): 19 nA/pF
Chloride Current (nA/pF) ([9]; 20 mV, diclofenac 5 μM): 36 nA/pF
Chloride Current (nA/pF) ([9]; 20 mV, diclofenac 20 μM): 34 nA/pF
Chloride Current (nA/pF) ([9]; 20 mV, diclofenac 50 μM): 33 nA/pF
Chloride Current (nA/pF) ([9]; 40 mV, diclofenac 5 μM): 53 nA/pF
Chloride Current (nA/pF) ([9]; 40 mV, diclofenac 20 μM): 51 nA/pF
Chloride Current (nA/pF) ([9]; 40 mV, diclofenac 50 μM): 48 nA/pF
Chloride Current (nA/pF) ([9]; 60 mV, diclofenac 5 μM): 72 nA/pF
Chloride Current (nA/pF) ([9]; 60 mV, diclofenac 20 μM): 69 nA/pF
Chloride Current (nA/pF) ([9]; 60 mV, diclofenac 50 μM): 66 nA/pF
Chloride Current (nA/pF) ([9]; 80 mV, diclofenac 5 μM): 92 nA/pF
Chloride Current (nA/pF) ([9]; 80 mV, diclofenac 20 μM): 88 nA/pF
Chloride Current (nA/pF) ([9]; 80 mV, diclofenac 50 μM): 85 nA/pF
Chloride Current (nA/pF) ([9]; 100 mV, diclofenac 5 μM): 115 nA/pF
Chloride Current (nA/pF) ([9]; 100 mV, diclofenac 20 μM): 109 nA/pF
Chloride Current (nA/pF) ([9]; 100 mV, diclofenac 50 μM): 106 nA/pF
inhibition of channel activity ([9]; diclofenac 5 μM to 50 μM, 2 μM ionomycin and 2 mM calcium): No inhibition
Structure (SMILES): O=C(O)Cc1ccccc1Nc1c(Cl)cccc1Cl [diclofenac]
